Laboratory results published in patent US20240360177A1, “PEPTIDES WITH ANTIMICROBIAL ACTIVITIES” (priority 2021, published 2024).
≈ marks a conversion by molar mass, not a printed value. Non-standard residues stand in square brackets, D forms with d. Residues, ends and D or L forms follow the SMILES beside them. Ava = NCCCCC(=O)O

Legend:
C. parapsilosis = conditions: 24 h
C. auris = conditions: 24 h
in vitro = conditions: human, EC50 cytotoxicity in HepG2, intracellular ATP assay
C. gattii = conditions: 72 h
[1] = test system: Staphylococcus aureus ATCC 29213; format: cell-based
C. krusei = conditions: 24 h
C. neoformans = conditions: 72 h
C. albicans = conditions: 24 h
C. dubliniensis = conditions: 24 h
[2] = test system: Pseudomonas aeruginosa ATCC 27853; format: cell-based
Fusarium spp. = conditions: 48 h
C. tropicalis = conditions: 24 h
C. glabrata = conditions: 24 h
Scedosporium spp. = conditions: 72 h
[3] = test system: Escherichia coli ATCC 25922; format: cell-based

| Structure (SMILES) | MIC C. parapsilosis (C. parapsilosis) [µg/mL] | MIC C. auris (C. auris) [µg/mL] | EC50 (in vitro) [µg/mL] | MIC C. gattii (C. gattii) [µg/mL] | MIC C. krusei (C. krusei) [µg/mL] | MIC C. neoformans (C. neoformans) [µg/mL] | MIC C. albicans (C. albicans) [µg/mL] | MIC C. dubliniensis (C. dubliniensis) [µg/mL] | MIC Range Lomentospora prolificans (Lomentospora prolificans) [µg/mL] | MIC Range Cryptococcus spp. (Cryptococcus spp.) [µg/mL] | MIC Range Fusarium spp. (Fusarium spp.) [µg/mL] | MIC C. tropicalis (C. tropicalis) [µg/mL] | MIC C. glabrata (C. glabrata) [µg/mL] | Activity at 24 h MIC50 against Candida spp. (Candida spp.) [µg/mL] | Activity at 24 h MIC90 against Candida spp. (Candida spp.) [µg/mL] | Activity at 48 h MIC50 against Candida spp. (Candida spp.) [µg/mL] | Activity at 48 h MIC90 against Candida spp. (Candida spp.) [µg/mL] | MIC Range Filamentous Fungi (Filamentous Fungi) [µg/mL] | MIC Range Scedosporium spp. (Scedosporium spp.) [µg/mL] | further results |
| --- | --- | --- | --- | --- | --- | --- | --- | --- | --- | --- | --- | --- | --- | --- | --- | --- | --- | --- | --- | --- |
| N=C(N)NCCC[C@@H](N)C(=O)N[C@@H](CCCNC(=N)N)C(=O)N[C@H](CCCNC(=N)N)C(=O)NCCCCC(=O)N[C@H](CCCNC(=N)N)C(=O)N[C@@H](CCCNC(=N)N)C(=O)N[C@H](CCCNC(=N)N)C(=O)NCCCCC(=O)N[C@H](CCCNC(=N)N)C(=O)N[C@@H](CCCNC(=N)N)C(=O)N[C@H](CCCNC(=N)N)C(=O)N[C@@H](CCCNC(=N)N)C(=O)NCCCCC(=O)N[C@H](CCCNC(=N)N)C(=O)N[C@@H](CCCNC(=N)N)C(=O)N[C@H](CCCNC(=N)N)C(=O)N[C@@H](CCCNC(=N)N)C(N)=O [SEQ ID NO: 18, rRr-(Ava)-rRr-(Ava)-rRrR-(Ava)-rRrR-NH2] (H-[dR]R[dR][Ava][dR]R[dR][Ava][dR]R[dR]R[Ava][dR]R[dR]R-NH2) | 0.25 (≈ 0.1 µM) | 0.25 (≈ 0.1 µM) | > 300 | 0.25 (≈ 0.1 µM) | 0.5 (≈ 0.2 µM) | 0.25 (≈ 0.1 µM) | 1 (≈ 0.4 µM) | 0.5 (≈ 0.2 µM) | 0.5 (≈ 0.2 µM) | 0.25 to 0.5 | 0.25 to 0.5 | 0.5 (≈ 0.2 µM) | 0.5 (≈ 0.2 µM) | 0.5 | 1 | 0.5 | 2 | 0.25 to 0.5 | 0.25 to 0.5 | MIC Staphylococcus aureus [1]: 16 µg/mL (≈ 6.4 µM); MIC Pseudomonas aeruginosa [2]: 64 µg/mL (≈ 25.6 µM); MIC Escherichia coli [3]: 32 µg/mL (≈ 12.8 µM) |
| N=C(N)NCCC[C@@H](N)C(=O)N[C@@H](CCCNC(=N)N)C(=O)N[C@H](CCCNC(=N)N)C(=O)NCCCCC(=O)N[C@H](CCCNC(=N)N)C(=O)N[C@@H](CCCNC(=N)N)C(=O)N[C@H](CCCNC(=N)N)C(=O)NCCCCC(=O)N[C@H](CCCNC(=N)N)C(=O)N[C@@H](CCCNC(=N)N)C(=O)N[C@H](CCCNC(=N)N)C(=O)NCCCCC(=O)N[C@H](CCCNC(=N)N)C(=O)N[C@@H](CCCNC(=N)N)C(=O)N[C@H](CCCNC(=N)N)C(N)=O [SEQ ID NO: 22, rRr-(Ava)-rRr-(Ava)-rRr-(Ava)-rRr-NH2] (H-[dR]R[dR][Ava][dR]R[dR][Ava][dR]R[dR][Ava][dR]R[dR]-NH2) | 0.25 (≈ 0.114 µM) | 2 (≈ 0.914 µM) |  | 0.5 (≈ 0.228 µM) | 1 (≈ 0.457 µM) | 1 (≈ 0.457 µM) | 0.5 (≈ 0.228 µM) | 0.25 (≈ 0.114 µM) | 2 (≈ 0.914 µM) | 0.5 to 1 | 0.5 to 16 | 0.5 (≈ 0.228 µM) | 0.5 (≈ 0.228 µM) | 1 | 8 | 2 | 32 | 0.5 to 16 | 1 to 2 |  |
| N=C(N)NCCC[C@@H](N)C(=O)N[C@@H](CCCNC(=N)N)C(=O)N[C@H](CCCNC(=N)N)C(=O)N1CCC[C@H]1C(=O)N[C@H](CCCNC(=N)N)C(=O)N[C@@H](CCCNC(=N)N)C(=O)N[C@H](CCCNC(=N)N)C(=O)N1CCC[C@H]1C(=O)N[C@H](CCCNC(=N)N)C(=O)N[C@@H](CCCNC(=N)N)C(=O)N[C@H](CCCNC(=N)N)C(=O)N1CCC[C@H]1C(=O)N[C@H](CCCNC(=N)N)C(=O)N[C@@H](CCCNC(=N)N)C(=O)N[C@H](CCCNC(=N)N)C(N)=O [SEQ ID NO: 66, rRr-P-rRr-P-rRr-P-rRr-NH2] (H-[dR]R[dR]P[dR]R[dR]P[dR]R[dR]P[dR]R[dR]-NH2) | 0.25 (≈ 0.115 µM) | 8 (≈ 3.67 µM) | > 300 | 1 (≈ 0.458 µM) | 0.5 (≈ 0.229 µM) | 0.5 (≈ 0.229 µM) | 0.25 (≈ 0.115 µM) | 0.25 (≈ 0.115 µM) | 2 (≈ 0.916 µM) | 0.5 to 1 | 0.12 to 8 | 0.25 (≈ 0.115 µM) | 0.5 (≈ 0.229 µM) | 0.5 | 8 | 0.5 | 16 | 0.12 to 8 | 0.5 to 2 |  |
| N=C(N)NCCC[C@@H](N)C(=O)N[C@@H](CCCNC(=N)N)C(=O)N[C@H](CCCNC(=N)N)C(=O)N1CCC[C@H]1C(=O)N[C@H](CCCNC(=N)N)C(=O)N[C@@H](CCCNC(=N)N)C(=O)N1CCC[C@H]1C(=O)N[C@H](CCCNC(=N)N)C(=O)N[C@@H](CCCNC(=N)N)C(=O)N1CCC[C@H]1C(=O)N[C@H](CCCNC(=N)N)C(=O)N[C@@H](CCCNC(=N)N)C(=O)N[C@H](CCCNC(=N)N)C(N)=O [SEQ ID NO: 70, rRr-P-rR-P-rR-P-rRr-NH2] (H-[dR]R[dR]P[dR]RP[dR]RP[dR]R[dR]-NH2) | 2 (≈ 1.07 µM) | >32 |  | 4 (≈ 2.14 µM) | 2 (≈ 1.07 µM) | 8 (≈ 4.28 µM) | 0.5 (≈ 0.267 µM) | 1 (≈ 0.535 µM) | 32 (≈ 17.1 µM) | 1 to 8 |  | 1 (≈ 0.535 µM) | 4 (≈ 2.14 µM) | 4 | >32 | 8 | >32 |  | 8 (≈ 4.28 µM) |  |
